Experimental findings from ChEMBL document CHEMBL5053509, “Development of a Selective Dual Discoidin Domain Receptor (DDR)/p38 Kinase Chemical Probe” (J Med Chem, 2021) are described below.

The data set in a line: Metabolic stability in human liver microsomes assessed as parent compound remaining after 240 mins incubation by LC-MS/MS analysis. The format is ADME, Microsome. Particulars: read-out: Stability.

Each structure is given as a SMILES string.

For `CS(=O)(=O)N1CCC[C@H](NC(=O)[C@H](CCC2CCCCC2)NC(=O)c2ccc(CNC(=O)c3cnn(-c4ccccc4)c3N)cc2)C1`, the remaining at 4 h is 44%.
Turning to `CS(=O)(=O)N1CCCC(NC(=O)[C@H](CCC2CCCCC2)NC(=O)c2ccc(CNC(=O)c3cnc4ccccn34)cc2)C1` (mixture of isomers) [SR-302], the remaining at 4 h stood at 44%.
